# Patent publication US20210337789A1, “Derivatives of m-Guaiacol, Their Preparation and Their Uses” (Universite de Caen Normandie, priority 2018, published 2021)
# Assays:
# [1] = tested on: S. aureus strains presenting high levels of resistance; assay: Bacterial growth on S. aureus strains presenting high levels of resistance; format: cell-based, Staphylococcus aureus; design: key to Effects (0 < 1 < 2 < 3): 0 = no effect; 1 = pure only; 2 = several concs; 3 = strong at each; key to Δ DO: change in optical density measured at 600 nm; details: for Effects (0 < 1 < 2 < 3): molecules at 1, 0.5 and 0.1 mg/ml, triclosan at 0.1 mg/ml
# [2] = tested on: E. coli strains presenting high levels of resistance; assay: Bacterial growth on E. coli strains presenting high levels of resistance; format: cell-based, Escherichia coli; design: key to Effects (0 < 1 < 2 < 3): 0 = no effect; 1 = pure only; 2 = several concs; 3 = strong at each; key to Δ DO: change in optical density measured at 600 nm; details: for Effects (0 < 1 < 2 < 3): molecules at 1, 0.5 and 0.1 mg/ml, triclosan at 0.1 mg/ml
# Escherichia coli = assay: Bacterial growth screening on wild-type phenotype strain, E. coli; format: cell-based; also: key: 0: no effect observed; 1: effect observed only when the molecule is tested pure; 2: effect observed at several concentrations, but which gradually decreases the dilutions; 3: strong effect observed at each concentration of molecule tested
# androgenic receptors = target: T1, androgenic receptors (Homo sapiens, UniProt P10275); assay: Affinity test for androgenic receptors, inhibition of bonding of radioactive marked testosterone; format: binding; details: 10^−5 M, greater than 50% considered significant, read-out: % of inhibition (average of the two measurements)
# T1 sequence (P10275 1-920): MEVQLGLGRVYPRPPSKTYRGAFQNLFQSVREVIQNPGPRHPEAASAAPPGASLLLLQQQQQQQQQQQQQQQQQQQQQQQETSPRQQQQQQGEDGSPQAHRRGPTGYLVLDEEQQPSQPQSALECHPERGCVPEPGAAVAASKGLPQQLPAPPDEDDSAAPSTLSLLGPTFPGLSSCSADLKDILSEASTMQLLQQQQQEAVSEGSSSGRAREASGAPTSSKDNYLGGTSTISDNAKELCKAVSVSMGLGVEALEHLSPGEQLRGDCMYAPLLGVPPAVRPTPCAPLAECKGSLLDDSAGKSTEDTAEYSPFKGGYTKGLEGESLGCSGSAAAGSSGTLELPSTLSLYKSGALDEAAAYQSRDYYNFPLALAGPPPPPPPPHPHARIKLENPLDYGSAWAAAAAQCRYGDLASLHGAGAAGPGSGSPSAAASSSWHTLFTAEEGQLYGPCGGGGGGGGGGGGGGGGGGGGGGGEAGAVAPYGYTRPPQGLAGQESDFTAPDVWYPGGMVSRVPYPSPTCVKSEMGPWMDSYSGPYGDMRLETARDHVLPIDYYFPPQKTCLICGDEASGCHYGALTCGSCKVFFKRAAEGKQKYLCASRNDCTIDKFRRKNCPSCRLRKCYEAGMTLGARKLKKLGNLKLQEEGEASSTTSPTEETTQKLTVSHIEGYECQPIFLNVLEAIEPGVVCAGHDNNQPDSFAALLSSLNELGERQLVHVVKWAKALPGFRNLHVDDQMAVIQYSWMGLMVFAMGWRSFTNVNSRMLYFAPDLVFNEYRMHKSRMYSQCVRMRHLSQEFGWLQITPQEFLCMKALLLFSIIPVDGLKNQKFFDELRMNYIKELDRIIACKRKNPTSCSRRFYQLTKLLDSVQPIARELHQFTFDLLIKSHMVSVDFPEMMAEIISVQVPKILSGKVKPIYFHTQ
# [3] = tested on: Stenotrophomonas maltophila; assay: Bacterial growth screening on wild-type phenotype strain, S. maltophila; format: cell-based; also: key: 0: no effect observed; 1: effect observed only when the molecule is tested pure; 2: effect observed at several concentrations, but which gradually decreases the dilutions; 3: strong effect observed at each concentration of molecule tested
# [4] = tested on: Micrococcus luteus reference strain; assay: Bacterial growth (optical density at 600 nm) on Micrococcus luteus reference strain; format: cell-based; design: key: 0 = no effect, 1 = pure only, 2 = several concentrations, 3 = strong at all; details: in DMSO diluted in PBS, compared with triclosan
# [5] = tested on: Streptococcus equi subsp zooepidemicus; assay: Bacterial growth screening on wild-type phenotype strain, S. zooepidemicus; format: cell-based; also: key: 0: no effect observed; 1: effect observed only when the molecule is tested pure; 2: effect observed at several concentrations, but which gradually decreases the dilutions; 3: strong effect observed at each concentration of molecule tested
# [6] = tested on: KB cells (epidermoid carcinoma); assay: In vitro cytotoxicity, cell proliferation test (MTS) on KB cells; format: cell-based; details: Homo sapiens, KB cells, triplicate, 72 hours of exposure, with respect to DMSO control, read-out: percentage of inhibition of cell growth
# Staphylococcus aureus = assay: Bacterial growth screening on wild-type phenotype strain, S. aureus; format: cell-based; also: key: 0: no effect observed; 1: effect observed only when the molecule is tested pure; 2: effect observed at several concentrations, but which gradually decreases the dilutions; 3: strong effect observed at each concentration of molecule tested
compound,measurement,setting,value
COc1cc(O)c(Br)c(Cl)c1F [sr7615],Δ DO,"[1]; S. aureus Strain 1, 0.1 mg/ml",0.250
same,Δ DO,"[1]; S. aureus Strain 1, 0.5 mg/ml",0.434
same,Δ DO,"[1]; S. aureus Strain 1, 1 mg/ml",0.428
same,Effects (0 < 1 < 2 < 3),[1]; S. aureus Strain 1,3
same,Δ DO,"[1]; S. aureus Strain 2, 0.1 mg/ml",0.308
same,Δ DO,"[1]; S. aureus Strain 2, 0.5 mg/ml",0.412
same,Δ DO,"[1]; S. aureus Strain 2, 1 mg/ml",0.382
same,Effects (0 < 1 < 2 < 3),[1]; S. aureus Strain 2,3
same,Δ DO,"[1]; S. aureus Strain 3, 0.1 mg/ml",0.310
same,Δ DO,"[1]; S. aureus Strain 3, 0.5 mg/ml",0.482
same,Δ DO,"[1]; S. aureus Strain 3, 1 mg/ml",0.445
same,Effects (0 < 1 < 2 < 3),[1]; S. aureus Strain 3,3
same,Δ DO,"[1]; S. aureus Strain 4, 0.1 mg/ml",0.351
same,Δ DO,"[1]; S. aureus Strain 4, 0.5 mg/ml",0.450
same,Δ DO,"[1]; S. aureus Strain 4, 1 mg/ml",0.418
same,Effects (0 < 1 < 2 < 3),[1]; S. aureus Strain 4,3
same,Δ DO,"[2]; E. coli Strain 1, 0.1 mg/ml",0.047
same,Δ DO,"[2]; E. coli Strain 1, 0.5 mg/ml",0.777
same,Δ DO,"[2]; E. coli Strain 1, 1 mg/ml",0.896
same,Effects (0 < 1 < 2 < 3),[2]; E. coli Strain 1,2
same,Δ DO,"[2]; E. coli Strain 2, 0.1 mg/ml",0.080
same,Δ DO,"[2]; E. coli Strain 2, 0.5 mg/ml",0.886
same,Δ DO,"[2]; E. coli Strain 2, 1 mg/ml",1.082
same,Effects (0 < 1 < 2 < 3),[2]; E. coli Strain 2,2
same,Δ DO,"[2]; E. coli Strain 3, 0.1 mg/ml",0.029
same,Δ DO,"[2]; E. coli Strain 3, 0.5 mg/ml",0.526
same,Δ DO,"[2]; E. coli Strain 3, 1 mg/ml",0.882
same,Effects (0 < 1 < 2 < 3),[2]; E. coli Strain 3,2
same,Δ DO,"[2]; E. coli Strain 4, 0.1 mg/ml",0.253
same,Δ DO,"[2]; E. coli Strain 4, 0.5 mg/ml",0.809
same,Δ DO,"[2]; E. coli Strain 4, 1 mg/ml",0.945
same,Effects (0 < 1 < 2 < 3),[2]; E. coli Strain 4,3
same,"Effect level, E. coli",Escherichia coli,3
same,inhibition at 10 µM,androgenic receptors,3.1%
same,"Effect level, S. maltophila",[3],2
same,Effect level,[4],3
same,"Effect level, S. zooepidemicus",[5],3
same,inhibition at 10 µM,[6]; 10^−5 M,0%
same,inhibition at 1 µM,[6]; 10^−6 M,0%
same,"Effect level, S. aureus",Staphylococcus aureus,3
